Measured values: ChEMBL document CHEMBL5137049, “Discovery of a Novel Small-Molecule Inhibitor Disrupting TRBP-Dicer Interaction against Hepatocellular Carcinoma via the Modulation of microRNA Biogenesis” (J Med Chem, 2022)
Activity calls are given as the source filed them. No cut-off for these calls is given here.

What was measured:
[1] = system: HeLa; experiment: Inhibition of microRNA in human HeLa cells transfected with pCI-neo-luciferase-miR-21 plasmid assessed as change in luciferase signal by measuring relative luciferase unit by luciferase reporter assay; type: cell-based
[2] = biological target: T1, Programmed cell death protein 4 (Homo sapiens) (UniProt Q53EL6); experiment: Inhibition of PDCD4 in human HeLa cells tranfected with pCI-neo-luciferase-PDCD4 3'-UTR plasmid assessed as fold change in luciferase signal by measuring relative luciferase unit by luciferase reporter assay; type: cell-based
T1 sequence (whole entry): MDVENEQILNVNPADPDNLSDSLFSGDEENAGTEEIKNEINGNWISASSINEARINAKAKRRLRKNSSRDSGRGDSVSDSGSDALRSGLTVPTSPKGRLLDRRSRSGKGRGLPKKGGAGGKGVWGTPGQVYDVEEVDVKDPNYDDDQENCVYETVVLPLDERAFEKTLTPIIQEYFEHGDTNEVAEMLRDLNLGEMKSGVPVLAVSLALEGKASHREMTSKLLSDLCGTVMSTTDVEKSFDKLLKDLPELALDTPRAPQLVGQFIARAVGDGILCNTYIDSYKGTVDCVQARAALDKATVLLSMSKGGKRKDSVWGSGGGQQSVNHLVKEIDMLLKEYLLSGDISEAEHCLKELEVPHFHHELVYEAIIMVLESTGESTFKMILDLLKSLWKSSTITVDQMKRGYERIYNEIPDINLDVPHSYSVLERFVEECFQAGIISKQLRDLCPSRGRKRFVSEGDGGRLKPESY

[3] = Inhibition of microRNA in human HeLa cells transfected with pCI-neo-luciferase-miR-21 plasmid assessed as change in luciferase signal incubated for 24 hrs by luciferase reporter assay; type: cell-based
[4] = system: SK-HEP1; experiment: Antiproliferative activity against human SK-HEP1 cells assessed as inhibition of cell growth incubated for 72 hrs by CellTiter-luminescence assay; type: functional, cell-based
[5] = system: HCCLM3; experiment: Antiproliferative activity against human HCCLM3 cells assessed as inhibition of cell growth incubated for 72 hrs by CellTiter-luminescence assay; type: functional, cell-based
[6] = system: SK-HEP1; experiment: Inhibition of cell migration in human SK-HEP1 cells at 10 to 25 uM measured after 24 hrs by crystal violet staining based transwell assay; type: functional; details: dose 10-25 µM

Structure (SMILES) | RLU [1] | RLU [2] | other results
COC(=O)[C@H](NS(=O)(=O)c1ccc(OC)cc1)C(C)C | 1.02 | 1.06 | –
COC(=O)[C@@H](C(C)C)N(Cc1nc(-c2ccc(OC)c(OC)c2)oc1C)S(=O)(=O)c1ccc(C)cc1 | 1.08 | 0.95 | –
CCOC(=O)c1nc(-c2ccc(C)cc2)oc1C | – | – | EC50 [3]: 2.99 µM; Activity [4]: Active; Activity [5]: Active; inhibition [6]: Active
COC(=O)[C@@H](C(C)C)N(Cc1nc(-c2ccc(Cl)cc2)oc1C)S(=O)(=O)c1ccc(C)cc1 | 1.03 | 1.08 | –
COC(=O)[C@@H](C(C)C)N(Cc1nc(-c2ccc(OC)cc2)oc1C)S(=O)(=O)c1ccc(OC)cc1 | 0.99 | 1.03 | –
COc1ccc(-c2nc(CN([C@@H](C(=O)NO)C(C)C)S(=O)(=O)c3ccc(OC)cc3)c(C)o2)cc1 | 1.01 | 1.02 | –
COc1ccc(-c2nc(CCl)c(C)o2)cc1 | 1.12 | 1.05 | –
COc1ccc(S(=O)(=O)N(Cc2nc(-c3cc(OC)c(OC)c(OC)c3)oc2C)[C@@H](C(=O)O)C(C)C)cc1 | 1.08 | 1.02 | –
CCOC(=O)c1nc(-c2ccc(-c3ccccc3)cc2)oc1C | – | – | EC50 [3]: 1.85 µM; Activity [4]: Active; Activity [5]: Active; inhibition [6]: Active
COC(=O)[C@@H](C(C)C)N(Cc1nc(-c2ccc(Cl)cc2)oc1C)S(=O)(=O)c1ccc(OC)cc1 | 1.12 | 0.93 | –
COC(=O)[C@@H](C(C)C)N(Cc1nc(-c2ccccc2)oc1C)S(=O)(=O)c1ccc(OC)cc1 | 0.96 | 1.09 | –
COc1ccc(-c2nc(CN([C@@H](C(=O)O)C(C)C)S(=O)(=O)c3ccc(OC)cc3)c(C)o2)cc1 | 1.04 | 1 | –
COc1ccc(-c2nc(CN([C@@H](C(=O)O)C(C)C)S(=O)(=O)c3ccc(C)cc3)c(C)o2)cc1 | 1.12 | 1.05 | –
Cc1oc(-c2ccccc2)nc1CCl | 1.13 | 1.03 | –
COc1ccc(S(=O)(=O)N(Cc2nc(-c3ccccc3)oc2C)[C@@H](C(=O)O)C(C)C)cc1 | 1.05 | 1.01 | –
COc1cc(-c2nc(CCl)c(C)o2)cc(OC)c1OC | 1.09 | 2.01 | –
COc1ccc(S(=O)(=O)N(Cc2nc(-c3cc(OC)c(OC)c(OC)c3)oc2C)[C@@H](C(=O)NO)C(C)C)cc1 | 1.06 | 0.94 | –
COC(=O)[C@@H](C(C)C)N(Cc1nc(-c2ccc([N+](=O)[O-])cc2)oc1C)S(=O)(=O)c1ccc(OC)cc1 | 0.98 | 0.96 | –
COc1ccc(S(=O)(=O)N(Cc2nc(-c3ccccc3)oc2C)[C@@H](C(=O)NO)C(C)C)cc1 | 1.02 | 0.98 | –
COC(=O)[C@H](NS(=O)(=O)c1ccc(C)cc1)C(C)C | 1.04 | 1.03 | –
COc1ccc(S(=O)(=O)N(Cc2nc(-c3ccc([N+](=O)[O-])cc3)oc2C)[C@@H](C(=O)O)C(C)C)cc1 | 1.17 | 1.02 | –

Structure (SMILES) | RLU [1] | RLU [2] | other results
COc1ccc(S(=O)(=O)N(Cc2nc(-c3ccc(Cl)cc3)oc2C)[C@@H](C(=O)O)C(C)C)cc1 | 1.06 | 0.97 | –
COc1ccc(S(=O)(=O)N(Cc2nc(-c3ccc(OC)c(OC)c3)oc2C)[C@@H](C(=O)O)C(C)C)cc1 | 1.02 | 0.86 | –
CCOC(=O)c1nc(-c2ccccc2)oc1C | 1.14 | 1.07 | –
Cc1oc(-c2ccc(OCc3ccccc3)cc2)nc1CCl | 4.77 | 2.01 | –
COC(=O)[C@@H](C(C)C)N(Cc1nc(-c2ccc(OC)cc2)oc1C)S(=O)(=O)c1ccc(C)cc1 | 1.06 | 1.04 | –
COc1ccc(-c2nc(CN([C@@H](C(=O)O)C(C)C)S(=O)(=O)c3ccc(C)cc3)c(C)o2)cc1OC | 0.98 | 0.97 | –
COc1ccc(S(=O)(=O)N(Cc2nc(-c3ccc(OCc4ccccc4)cc3)oc2C)[C@@H](C(=O)O)C(C)C)cc1 | 2.47 | 1.65 | –
COC(=O)[C@@H](C(C)C)N(Cc1nc(-c2cc(OC)c(OC)c(OC)c2)oc1C)S(=O)(=O)c1ccc(OC)cc1 | 1.08 | 1.03 | –
CCOC(=O)c1nc(-c2cc(OC)c(OC)c(OC)c2)oc1C | 1.13 | 1.09 | –
COC(=O)[C@@H](C(C)C)N(Cc1nc(-c2ccc(OCc3ccccc3)cc2)oc1C)S(=O)(=O)c1ccc(OC)cc1 | 1.58 | 1.32 | –
Cc1oc(-c2ccc([N+](=O)[O-])cc2)nc1CCl | 1.2 | 1.11 | –
Cc1oc(-c2ccc(Cl)cc2)nc1CCl | 1.22 | 1.11 | –
COC(=O)[C@@H](C(C)C)N(Cc1nc(-c2ccc(OC)c(OC)c2)oc1C)S(=O)(=O)c1ccc(OC)cc1 | 1.06 | 0.95 | –
CCOC(=O)c1nc(-c2ccc(OC)c(OC)c2)oc1C | 1.35 | 1.17 | –
COc1ccc(S(=O)(=O)N(Cc2nc(-c3ccc(OC)c(OC)c3)oc2C)[C@@H](C(=O)NO)C(C)C)cc1 | 1.02 | 0.86 | –
COc1ccc(-c2nc(CCl)c(C)o2)cc1OC | 1.3 | 1.06 | –
CCOC(=O)c1nc(-c2ccc(Cl)cc2)oc1C | – | – | EC50 [3]: 7.34 µM
CCOC(=O)c1nc(-c2ccc(Br)cc2)oc1C | – | – | EC50 [3]: 5.98 µM
Cc1oc(-c2ccc(-c3ccccc3)cc2)nc1C(=O)OCCO | – | – | EC50 [3]: 7.44 µM; Activity [4]: Active; Activity [5]: Active; inhibition [6]: Active
Cc1ccc(S(=O)(=O)N(Cc2nc(-c3ccc(Cl)cc3)oc2C)[C@@H](C(=O)O)C(C)C)cc1 | 1.14 | 1.03 | –
